# Measurements taken from patent publication US20240165114A1, “TREATMENT OF DIABETIC NEPHROPATHY WITH AN sGC STIMULATOR” (Cyclerion Therapeutics, Inc., priority 2019, published 2024).
# How the values were obtained:
# [1] = tested on: adult patients with type 2 diabetes mellitus with albuminuria; experiment: Phase 2 study: change from baseline in urine albumin to creatinine ratio (UACR); type: in vivo, human; settings: for Between PRL and PBO Group Geometric Mean % Change UACR from Baseline: placebo adjusted; for UACR: Mean CFB at Weeks 8 & 12, Placebo Adjusted / UACR: Mean CFB at Weeks 8 & 12, Within Group: text b231-232 says Week 12
# Excerpt: A Multicenter, Randomized, Double-blind, Placebo-controlled, Phase2 Study to Evaluate the Safety and Efficacy of IW-1973 in Patients with Type 2 Diabetes with Albuminuria Treated with Renin-Angiotensin System Inhibitors
# The primary objectives of this clinical study (Clinical Trials.gov Identifier NCT03217591) were to assess the safety and tolerability and to evaluate the effect of oral IW-1973 on renal function when administered daily for approximately 12 weeks to adult patients with type 2 diabetes mellitus with albuminuria who were on a stable regimen of renin-angiotensin system inhibitors ([…] or ARBs).
# The primary efficacy endpoint of this trial was the change from baseline in Urine Albumin to Creatinine Ratio (UACR) at Weeks 8 and 12. UACR was determined as the concentration of urine albumin [mg/dL] divided by the concentration of urine creatinine [g/dL]) from urinalysis. First morning void urine samples were collected. To reduce variability, the measurement of UACR was the average of 2-first morning void tests at each timepoint.
# (§1) This multicenter, randomized, double-blind, placebo-controlled, parallel-group study evaluated 2 dose levels of IW-1973 compared with placebo. The study population consisted of adult patients with type 2 diabetes mellitus, albuminuria, and impaired renal function. Patients had to have been taking antihyperglycemic medications for at least 12 weeks with their regimen being stable (ie, drug and dose) for at least 28 days before the Randomization Visit. Additionally, patients had to have been on a stable regimen of angiotensin-converting enzyme inhibitor (ACEi) or an angiotensin receptor blocker (ARB), for at least 28 days before the Randomization Visit. For more details, see Inclusion Criteria below. A total of 156 patients (approximately 50 patients per arm) were stratified by baseline estimated glomerular filtration rate (eGFR) into three groups: eGFR 30 to 45, >45 to 60, and >60 to 75 mL/min/1.73 m^2) and randomized approximately 1:1:1 to total daily 20 mg IW-1973, 40 mg IW-1973, or placebo.
# Treatment Period: The Treatment Period began on Day 1 at Randomization (there was no Day 0) and ended after the End of Treatment Visit on Day 87 (±3). Patients were stratified in one of three groups by baseline eGFR (ie, eGFR 30 to 45, >45 to 60, and >60 to 75 mL/min/1.73 m2) and randomized in an approximate1:1:1 ratio to receive 20 mg IW-1973, 40 mg IW-1973, or placebo for approximately 12 weeks.
# (§2) Dosing on Days 1 to 7 (±1) was BID (twice daily), morning and evening; dosing on Day 8 (±1) and onward was QD (once daily), 2 tablets in the morning. At the Randomization Visit on Day 1, patients received their morning dose of study drug in the clinic and underwent safety, efficacy, and pharmacokinetic (PK) assessments, including blood and urine collections at prespecified times. Patients stayed in the clinic at least 6 hours postdose and were able to leave the clinic at the Investigator's discretion following all study procedures. At the Week 1 Visit on Day 8 (±1), patients returned to the clinic and received their first QD dose of study drug in the clinic. Patients underwent safety, efficacy, and PK assessments, including blood and urine collections at prespecified times. Patients stayed in the clinic at least 6 hours postdose and were able to leave the clinic at the Investigator's discretion following all study procedures. At the Week 4 (Day 29±3), Week 8 (Day 57±3), and End of Treatment (Day 87±3) Visits, patients returned to the clinic for study drug administration; safety, efficacy, and PK assessments; and study drug supply, if applicable.
# One week at 10 mg BID followed by 20 mg QD for the remainder of the trial, i.e., a 20 mg total daily dosage; or
# One week at 20 mg BID, followed by 40 mg QD for the remainder of the trial, i.e., a 40 mg total daily dosage.
# [2] = tested on: adult patients with type 2 diabetes mellitus with albuminuria; experiment: Phase 2 study: 24-hour ambulatory blood pressure monitoring (ABPM); type: in vivo, human; settings: ITT, 24-Hour ABPM
# Procedure: Hemodynamic and vital signs that were measure included seated and standing BP (systolic and diastolic) and pulse measurements by automated office blood pressure (AOBP), ambulatory BP (systolic and diastolic) and pulse monitoring, respiratory rate, oral temperature. Orthostatic (standing minus seated) measurements were calculated for BPs and pulse.
# as §1
# Screening Period: The Screening Period began with the signature of the informed consent form (ICF) at the Screening Visit and lasted up to 45 days. At the Screening Visit (which could occur from Day −45 to Day −15), patients underwent preliminary screening procedures to determine their eligibility. Eligible patients returned to the clinic for the Baseline Visit ([…]) for baseline and eligibility assessments including 24-hour ambulatory blood pressure monitoring (ABPM). The end of the Screening Period coincided with the beginning of the Treatment Period.
# as §2
# [3] = patient concomitantly taking a strong CYP3A inhibitor; cited from earlier work
# [4] = ITT, Week 12, PRL 20 mg total daily
# [5] = ITT, Week 12, PRL 40 mg total daily
# [6] = ITT, Weeks 8 & 12, PRL 20 mg total daily
structure (smiles),measurement,setting,value
"OC(CNc1nc(-c2cc(-c3ccon3)n(Cc3ccccc3F)n2)ncc1F)(C(F)(F)F)C(F)(F)F [Compound I, praliciguat]",Within Group Geometric Mean % Change UACR from Baseline,[1]; [4],−35.2%
same,Between PRL and PBO Group Geometric Mean % Change UACR from Baseline,[1]; [4],−23.9%
same,Within Group Geometric Mean % Change UACR from Baseline,[1]; [5],−26.4%
same,Between PRL and PBO Group Geometric Mean % Change UACR from Baseline,[1]; [5],−13.6%
same,Within Group Geometric Mean % Change UACR from Baseline,"[1]; ITT, Week 12, PRL Combined",−30.9%
same,Between PRL and PBO Group Geometric Mean % Change UACR from Baseline,"[1]; ITT, Week 12, PRL Combined",−18.9%
same,Within Group Geometric Mean % Change UACR from Baseline,[1]; [6],−28.4%
same,Between PRL and PBO Group Geometric Mean % Change UACR from Baseline,[1]; [6],−16.0%
same,Within Group Geometric Mean % Change UACR from Baseline,"[1]; ITT, Weeks 8 & 12, PRL 40 mg total daily",−27.3%
same,Within Group Geometric Mean % Change UACR from Baseline,"[1]; ITT, Weeks 8 & 12, PRL Combined (20 and 40 mg)",−27.8%
same,placebo-adjusted reduction (mean percent decrease) from baseline in UACR,"[1]; ITT, combined praliciguat groups, Weeks 8 and 12",15%
same,reduction from baseline in UACR,"[1]; ITT, combined praliciguat groups, over 12 weeks (weeks 8 and 12)",28%
same,"UACR Mean % CFB at Weeks 8 & 12, Placebo Adjusted","[1]; mITT Population, PRL 20 mg",−14.8%
same,"UACR Mean % CFB at Weeks 8 & 12, Within Group","[1]; mITT Population, PRL 20 mg",−18.4%
same,"UACR: Mean CFB at Weeks 8 & 12, Placebo Adjusted","[1]; mITT Population, PRL 20 mg",−21.5%
same,"UACR: Mean CFB at Weeks 8 & 12, Within Group","[1]; mITT Population, PRL 20 mg",−24.7%
same,"UACR Mean % CFB at Weeks 8 & 12, Placebo Adjusted","[1]; mITT Population, PRL 40 mg",−25.1%
same,"UACR Mean % CFB at Weeks 8 & 12, Within Group","[1]; mITT Population, PRL 40 mg",−28.3%
same,"UACR: Mean CFB at Weeks 8 & 12, Placebo Adjusted","[1]; mITT Population, PRL 40 mg",−24.2%
same,"UACR: Mean CFB at Weeks 8 & 12, Within Group","[1]; mITT Population, PRL 40 mg",−27.4%
same,"UACR Mean % CFB at Weeks 8 & 12, Placebo Adjusted","[1]; mITT Population, PRL Combined",−20.1%
same,"UACR Mean % CFB at Weeks 8 & 12, Within Group","[1]; mITT Population, PRL Combined",−23.5%
same,"UACR: Mean CFB at Weeks 8 & 12, Placebo Adjusted","[1]; mITT Population, PRL Combined",−22.9%
same,"UACR: Mean CFB at Weeks 8 & 12, Within Group","[1]; mITT Population, PRL Combined",−26.1%
same,placebo-adjusted mean percent decrease in UACR,"[1]; mITT Population, combined praliciguat treatment groups, Week 12",23%
same,placebo-adjusted mean percent decrease from baseline in UACR,"[1]; mITT Population, combined praliciguat treatment groups, Weeks 8 and 12",20%
same,placebo-corrected mean reduction from baseline in UACR,"[1]; mITT, participants with eGFR 30-45 mL/min/1.73 m^2 at baseline, 12-week treatment",30-40%
same,Between PRL and PBO Group LS Mean Change 24-hour MAP from Baseline at week 12,[2]; PRL 20 mg,−3.96 mmHg
same,Between PRL and PBO Group LS Mean Change 24-hour SBP from Baseline at week 12,[2]; PRL 20 mg,−4.06 mmHg
same,Within Group LS Mean Change from Baseline 24-hour MAP at Week 12,[2]; PRL 20 mg,−3.62 mmHg
same,Within Group LS Mean Change from Baseline 24-hour SBP at Week 12,[2]; PRL 20 mg,−4.18 mmHg
same,Between PRL and PBO Group LS Mean Change 24-hour MAP from Baseline at week 12,[2]; PRL 40 mg,−3.58 mmHg
same,Between PRL and PBO Group LS Mean Change 24-hour SBP from Baseline at week 12,[2]; PRL 40 mg,−4.29 mmHg
same,Within Group LS Mean Change from Baseline 24-hour MAP at Week 12,[2]; PRL 40 mg,−3.23 mmHg
same,Within Group LS Mean Change from Baseline 24-hour SBP at Week 12,[2]; PRL 40 mg,−4.41 mmHg
same,Between PRL and PBO Group LS Mean Change 24-hour MAP from Baseline at week 12,[2]; PRL Combined,−3.77 mmHg
same,Between PRL and PBO Group LS Mean Change 24-hour SBP from Baseline at week 12,[2]; PRL Combined,−4.17 mmHg
same,Within Group LS Mean Change from Baseline 24-hour MAP at Week 12,[2]; PRL Combined,−3.43 mmHg
same,Within Group LS Mean Change from Baseline 24-hour SBP at Week 12,[2]; PRL Combined,−4.30 mmHg
same,AUC with concomitant strong CYP3A inhibitor versus without,[3],doubled
same,T1/2 with concomitant strong CYP3A inhibitor versus without,[3],doubled
